{"source": "paper PMC6572064", "about": "“Discovery of 2-(1-(3-(4-Chloroxyphenyl)-3-oxo- propyl)pyrrolidine-3-yl)-1H-benzo[d]imidazole-4-carboxamide: A Potent Poly(ADP-ribose) Polymerase (PARP) Inhibitor for Treatment of Cancer” (Molecules, 2019)", "key": {"PARP-1": {"molecular_target": "T1, PARP-1 (Homo sapiens, UniProt P09874)", "T1 construct": "purchased BPS Bioscience 80569", "T1 sequence (P09874 whole entry)": "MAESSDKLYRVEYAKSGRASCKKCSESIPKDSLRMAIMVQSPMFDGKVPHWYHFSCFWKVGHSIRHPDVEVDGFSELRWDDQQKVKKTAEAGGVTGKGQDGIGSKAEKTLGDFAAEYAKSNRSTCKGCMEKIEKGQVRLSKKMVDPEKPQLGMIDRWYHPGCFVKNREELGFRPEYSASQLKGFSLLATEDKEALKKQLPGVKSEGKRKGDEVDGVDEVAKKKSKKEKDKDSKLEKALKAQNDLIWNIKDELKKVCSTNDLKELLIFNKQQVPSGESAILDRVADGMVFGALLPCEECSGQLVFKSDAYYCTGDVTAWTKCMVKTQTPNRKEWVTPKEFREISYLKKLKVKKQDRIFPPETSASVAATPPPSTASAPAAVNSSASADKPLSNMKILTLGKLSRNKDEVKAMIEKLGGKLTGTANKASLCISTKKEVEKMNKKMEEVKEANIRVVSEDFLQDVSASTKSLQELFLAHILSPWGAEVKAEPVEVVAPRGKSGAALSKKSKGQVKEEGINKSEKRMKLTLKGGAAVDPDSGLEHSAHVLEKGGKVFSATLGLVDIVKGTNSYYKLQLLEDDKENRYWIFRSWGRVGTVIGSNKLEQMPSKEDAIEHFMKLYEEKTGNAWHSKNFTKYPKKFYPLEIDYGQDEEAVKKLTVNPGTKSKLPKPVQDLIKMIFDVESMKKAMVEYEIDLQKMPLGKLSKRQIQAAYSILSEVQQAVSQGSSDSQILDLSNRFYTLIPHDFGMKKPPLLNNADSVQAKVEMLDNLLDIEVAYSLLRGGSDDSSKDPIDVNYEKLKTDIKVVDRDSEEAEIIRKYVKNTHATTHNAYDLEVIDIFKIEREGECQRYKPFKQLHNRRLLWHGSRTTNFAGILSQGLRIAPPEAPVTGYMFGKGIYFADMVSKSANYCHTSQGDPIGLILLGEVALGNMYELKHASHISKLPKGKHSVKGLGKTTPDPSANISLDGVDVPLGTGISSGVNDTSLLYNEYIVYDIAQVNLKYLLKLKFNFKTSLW", "test": "PARP-1 inhibition assay (PARP-1 Chemiluminescent Assay Kit, BPS Bioscience)", "type": "biochemical", "settings": "10 nM compound", "method": "(§1) The PARP-1 and PARP-2 inhibition assays were performed in outsourcing, by a CRO company, Shanghai Medicilon Inc. (Shanghai, China). […] Briefly, PARP-1 or PARP-2 biotinylated substrate was incubated with compounds or solvent control at varying concentrations and an assay buffer containing the PARP-1 or PARP-2 enzyme."}, "PARP-2": {"molecular_target": "T2, PARP-2 (Homo sapiens, UniProt Q9UGN5)", "T2 construct": "purchased BPS Bioscience 80552", "T2 sequence (Q9UGN5 whole entry)": "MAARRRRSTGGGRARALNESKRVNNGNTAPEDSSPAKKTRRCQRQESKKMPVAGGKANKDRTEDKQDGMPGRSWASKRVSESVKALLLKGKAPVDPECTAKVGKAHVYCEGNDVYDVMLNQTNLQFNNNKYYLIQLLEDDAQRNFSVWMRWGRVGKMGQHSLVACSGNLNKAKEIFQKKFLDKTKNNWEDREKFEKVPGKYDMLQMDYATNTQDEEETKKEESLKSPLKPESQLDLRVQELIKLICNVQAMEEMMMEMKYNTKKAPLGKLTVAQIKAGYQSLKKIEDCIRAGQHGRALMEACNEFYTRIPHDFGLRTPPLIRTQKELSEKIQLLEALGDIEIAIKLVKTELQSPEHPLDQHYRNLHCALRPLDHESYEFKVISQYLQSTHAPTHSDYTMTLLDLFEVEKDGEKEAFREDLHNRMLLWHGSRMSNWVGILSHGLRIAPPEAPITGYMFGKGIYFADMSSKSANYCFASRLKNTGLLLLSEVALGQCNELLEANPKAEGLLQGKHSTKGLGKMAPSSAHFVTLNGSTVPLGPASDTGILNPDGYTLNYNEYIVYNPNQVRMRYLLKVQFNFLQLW", "test": "PARP-2 inhibition assay (PARP-2 Chemiluminescent Assay Kit, BPS Bioscience)", "type": "biochemical", "settings": "10 nM compound", "method": "as §1"}, "[1]": {"system": "MDA-MB-436 (a BRCA-1-mutated breast cancer cell line)", "test": "Cell proliferation assay, three-day, CellTiter-Glo, MDA-MB-436", "type": "cell-based", "settings": "for inhibition at 0.00508 µM: MDA-MB-436, MDA-MB-436, Conc. 0.00508 uM; for inhibition at 0.0152 µM: MDA-MB-436, MDA-MB-436, Conc. 0.0152 uM; for inhibition at 0.0457 µM: MDA-MB-436, MDA-MB-436, Conc. 0.0457 uM; for inhibition at 0.41 µM: MDA-MB-436, MDA-MB-436, Conc. 0.41 uM; for inhibition at 1.23 µM: MDA-MB-436, MDA-MB-436, Conc. 1.23 uM; for inhibition at 3.7 µM: MDA-MB-436, MDA-MB-436, Conc. 3.70 uM", "method": "(§2) A three-day assay was conducted. A cell suspension was prepared. Cell density was counted by an automated cell counter and then diluted to the required density, according to seeding density. 50 μL cells were seeded into 384-well plate in growth medium according to the plate map. The cells were incubated at 37 °C, 5% CO2 overnight.\n(§3) 200× compound solution in DMSO was prepared and diluted with growth medium to 26× final concentration by addition of 26 μL 200× compounds to 174 μL growth medium. Then 2 μL of diluted compound solution was added to cells and the cell was incubated at 37 °C, 5% CO2 for 72 h.\n(§4) The assay plate was equilibrated to room temperature prior to measurement. 15 μL of CellTiter-Glo Reagent was added into each well and the contents were mixed for 2 min on an orbital shaker to induce cell lysis. The cells were incubated at room temperature for 60 min to stabilize luminescent signal. Luminescence was recorded on the Envision system."}, "[2]": {"system": "CAPAN-1 (a BRCA-2-mutated pancreatic cancer cell line)", "test": "Cell proliferation assay, three-day, CellTiter-Glo, CAPAN-1", "type": "cell-based", "settings": "for inhibition at 0.00508 µM: CAPAN-1, 0.00508 uM; for inhibition at 0.0152 µM: CAPAN-1, 0.0152 uM; for inhibition at 0.0457 µM: CAPAN-1, 0.0457 uM; for inhibition at […]: CAPAN-1, 0.14 uM; for inhibition at 0.41 µM: CAPAN-1, 0.41 uM; for inhibition at 1.23 µM: CAPAN-1, 1.23 uM; for inhibition at 3.7 µM: CAPAN-1, 3.70 uM; for inhibition at 11.11 µM: CAPAN-1, Conc. 11.11 uM; for inhibition at 33.33 µM: CAPAN-1, Conc. 33.33 uM; for inhibition at 100 µM: CAPAN-1, Conc. 100.00 uM", "method": "as §2, §3, §4"}, "[3]": {"settings": "Homo sapiens, replicate 1, read-out: Inh % 1"}, "[4]": {"settings": "Homo sapiens, replicate 2, read-out: Inh % 2"}, "[5]": {"settings": "CAPAN-1, curve fit of Inh %, plate 1"}}, "note": "pIC50: −log10 of the molar value. Like-named read-outs stand apart in the source and are kept apart here.", "data": [{"smiles": "NC(=O)c1cccc2[nH]c(C3CCN(CC(=O)Nc4ccccc4)C3)nc12", "note": "(centres unmarked) [Compound 5ca, 2-(1-(2-Oxo-2-(phenylamino)ethyl)pyrrolidin-3-yl)-1H-benzo[d]imidazole-4-carboxamide]", "values": [{"measurement": "inhibition at 0.01 µM", "setting": "PARP-1; supplement sheet, read-out: 10 nM inhibition% PAPR-1", "value": 17.6, "unit": "%"}, {"measurement": "inhibition at 0.01 µM", "setting": "PARP-1; read-out: PARP-1 Inhibition % (10 nM)", "value": 17.6, "unit": "%"}, {"measurement": "inhibition at 0.01 µM", "setting": "PARP-2; supplement sheet, read-out: 10 nM inhibition% PAPR-2", "value": 34.5, "unit": "%"}, {"measurement": "inhibition at 0.01 µM", "setting": "PARP-2; read-out: PARP-2 Inhibition % (10 nM)", "value": 34.5, "unit": "%"}, {"measurement": "inhibition at 0.00508 µM", "setting": "[1]; [3]", "value": -8.8, "unit": "%"}, {"measurement": "inhibition at 0.00508 µM", "setting": "[1]; [4]", "value": -5.8, "unit": "%"}, {"measurement": "inhibition at 0.0152 µM", "setting": "[1]; [3]", "value": -0.8, "unit": "%"}, {"measurement": "inhibition at 0.0152 µM", "setting": "[1]; [4]", "value": -6.8, "unit": "%"}, {"measurement": "inhibition at 0.0457 µM", "setting": "[1]; [3]", "value": -1.6, "unit": "%"}, {"measurement": "inhibition at 0.0457 µM", "setting": "[1]; [4]", "value": -6.8, "unit": "%"}, {"measurement": "inhibition at 0.41 µM", "setting": "[1]; [3]", "value": 2.8, "unit": "%"}, {"measurement": "inhibition at 0.41 µM", "setting": "[1]; [4]", "value": -7.6, "unit": "%"}, {"measurement": "inhibition at 1.23 µM", "setting": "[1]; [3]", "value": 5.5, "unit": "%"}, {"measurement": "inhibition at 1.23 µM", "setting": "[1]; [4]", "value": -1.8, "unit": "%"}, {"measurement": "inhibition at 3.7 µM", "setting": "[1]; [3]", "value": 10.4, "unit": "%"}, {"measurement": "inhibition at 3.7 µM", "setting": "[1]; [4]", "value": 0.639, "unit": "%"}, {"measurement": "inhibition at 11.11 µM", "setting": "[1]; Homo sapiens, MDA-MB-436, MDA-MB-436, Conc. 11.11 uM, duplicate wells (Inh % 1, Inh % 2), read-out: Inh %", "value": 15.1, "unit": "%"}, {"measurement": "inhibition at 33.33 µM", "setting": "[1]; Homo sapiens, MDA-MB-436, MDA-MB-436, Conc. 33.33 uM, duplicate wells (Inh % 1, Inh % 2), read-out: Inh %", "value": 68.9, "unit": "%"}, {"measurement": "inhibition at 100 µM", "setting": "[1]; Homo sapiens, MDA-MB-436, MDA-MB-436, Conc. 100.00 uM, duplicate wells (Inh % 1, Inh % 2), read-out: Inh %", "value": 93.3, "unit": "%"}, {"measurement": "pIC50", "setting": "[1]; Homo sapiens, MDA-MB-436, 72 h, CellTiter-Glo, read-out: MDA-MB-436 IC50", "value": 4.64}, {"measurement": "pIC50", "setting": "[1]; Homo sapiens, MDA-MB-436, 72 h, supplement Summary sheet, read-out: IC50", "value": 4.64}, {"measurement": "IC50", "setting": "[1]; Homo sapiens, MDA-MB-436, curve fit list, no unit in the cell, concentration in uM, read-out: IC50", "value": 22.9, "unit": "µM"}, {"measurement": "Inh %", "setting": "[1]; MDA-MB-436, Conc. 11.11 uM, duplicate wells (Inh % 1, Inh % 2)", "value": 9.5, "unit": "%"}, {"measurement": "Inh %", "setting": "[1]; MDA-MB-436, Conc. 33.33 uM, duplicate wells (Inh % 1, Inh % 2)", "value": 56.4, "unit": "%"}, {"measurement": "Inh %", "setting": "[1]; MDA-MB-436, Conc. 100.00 uM, duplicate wells (Inh % 1, Inh % 2)", "value": 81.3, "unit": "%"}, {"measurement": "Bottom", "setting": "[1]; MDA-MB-436, curve fit parameter (Inh %)", "value": -3.40}, {"measurement": "Top", "setting": "[1]; MDA-MB-436, curve fit parameter (Inh %), '= 100.0' is a constrained value", "value": 92.23}, {"measurement": "LogIC50", "setting": "[1]; MDA-MB-436, curve fit, concentration axis Log (uM)", "value": 1.36}, {"measurement": "Bottom", "setting": "[2]; [5]", "value": 11.48}, {"measurement": "HillSlope", "setting": "[2]; [5]", "value": 1.045}, {"measurement": "Top", "setting": "[2]; [5]", "value": "= 100.0"}, {"measurement": "LogIC50", "setting": "[2]; CAPAN-1, curve fit, plate 1", "value": "2.027 Log (uM)"}, {"measurement": "pIC50", "setting": "[2]; Homo sapiens, CAPAN-1, 72 h, CellTiter-Glo, read-out: CAPAN-1 IC50", "value": "< 4.00"}, {"measurement": "inhibition at 0.00508 µM", "setting": "[2]; [3]", "value": -2.6, "unit": "%"}, {"measurement": "inhibition at 0.00508 µM", "setting": "[2]; [4]", "value": 19.1, "unit": "%"}, {"measurement": "inhibition at 0.0152 µM", "setting": "[2]; [3]", "value": -2.3, "unit": "%"}, {"measurement": "inhibition at 0.0152 µM", "setting": "[2]; [4]", "value": 9.8, "unit": "%"}, {"measurement": "inhibition at 0.0457 µM", "setting": "[2]; [3]", "value": 6.6, "unit": "%"}, {"measurement": "inhibition at 0.0457 µM", "setting": "[2]; [4]", "value": 22, "unit": "%"}, {"measurement": "inhibition at […]", "setting": "[2]; [3]", "value": 7.4, "unit": "%"}, {"measurement": "inhibition at […]", "setting": "[2]; [4]", "value": 15.6, "unit": "%"}, {"measurement": "inhibition at 0.41 µM", "setting": "[2]; [3]", "value": 22.5, "unit": "%"}, {"measurement": "inhibition at 0.41 µM", "setting": "[2]; [4]", "value": 10.9, "unit": "%"}, {"measurement": "inhibition at 1.23 µM", "setting": "[2]; [3]", "value": 21.1, "unit": "%"}, {"measurement": "inhibition at 1.23 µM", "setting": "[2]; [4]", "value": 9.6, "unit": "%"}, {"measurement": "inhibition at 3.7 µM", "setting": "[2]; [3]", "value": 8.2, "unit": "%"}, {"measurement": "inhibition at 3.7 µM", "setting": "[2]; [4]", "value": 19.9, "unit": "%"}, {"measurement": "inhibition at 11.11 µM", "setting": "[2]; [3]", "value": 22.1, "unit": "%"}, {"measurement": "inhibition at 11.11 µM", "setting": "[2]; [4]", "value": 20.4, "unit": "%"}, {"measurement": "inhibition at 33.33 µM", "setting": "[2]; [3]", "value": 29.2, "unit": "%"}, {"measurement": "inhibition at 33.33 µM", "setting": "[2]; [4]", "value": 28.3, "unit": "%"}, {"measurement": "inhibition at 100 µM", "setting": "[2]; [3]", "value": 59.9, "unit": "%"}, {"measurement": "inhibition at 100 µM", "setting": "[2]; [4]", "value": 51.1, "unit": "%"}]}]}
